This is an account of results in US8816121B2, “GLP-1 receptor stabilizers and modulators” (Receptos, Inc., priority 2010, dated 2014).

Some results are limits rather than exact numbers.

For test [1], the target named is T1, GLP-1R (Homo sapiens, UniProt P43220).
T1 construct: host or cells: CRE-bla CHO-K1
As to the kind of experiment: GLP-1 PAM EC20 assay: dosing compound in the presence of fixed GLP-1 (9-36), direct cAMP response. It counts as cell-based. Particulars: compound dose response in presence of EC20 GLP-1 (9-36); for EC50: GLP-1R CRE-bla CHO-K1 cells; for EC20 GLP-1 (9-36) PAM max cAMP: total cAMP from standard curve. How it is done:
GLP-1 PAM EC20 Assay: Dosing Compound in the Presence of Fixed GLP-1 (9-36)-Direct cAMP Response
GLP-1R CRE-bla CHO-K1 cells were seeded into 384-well white flat bottom plates at 10,000 cells/well/20 μL culture media (same culture media used for PAM shift assay) and incubated for 18 h at 37° C. in 5% CO2. Compound dose response curves (12-point) and a separate 30×EC20 GLP-1 (9-36) stock solution were generated in assay buffer (same assay buffer used for PAM shift assay) in presence of 1.5 mM IBMX and 12.5% DMSO. Cells were washed 1× with assay buffer prior to adding 3 μL of compound dose response curve and 0.5 μL EC20 GLP-1 (9-36) to 12 μL assay buffer and incubated for 30 min at 37° C. Direct detection of cAMP was carried out using DiscoveRx HitHunter cAMP kit according to manufacturer's instructions (substituting 5 μL Antibody portion with 2 μL) and luminescence was read using a SpectraMax M5 plate reader. Luminescence signal was converted to total cAMP using a cAMP standard curve and data was analyzed by non-linear regression to determine the EC50 values for cAMP dose response curves.

The subject of test [2] is GLP-1R. Description: Size exclusion chromatography peak shift assay (stability induction on GLP-1R). The conditions noted are these: relative to apo protein and a positive control; effect on dimer stability. The class given is binding. An excerpt:
Generation of GLP-1R Protein Used in the Stability Induction Assay
A synthetic gene for a modified GLP-1R enhanced for expression in insect cells was created using overlap extension PCR to encode the amino acid sequence containing a signal peptide, N-terminal Flag (Sigma) epitope tag, mGLP-1R, GFP and a 10× histidine tag.
This gene product was cloned into the insect cell transfer vector, pFastBac 1 (Invitrogen) for transposition into the baculovirus DNA hosted in the DH10Bac strain E. coli. […] High titer viral stock of the recombinant GLP-1R baculovirus was recovered and used to infect a healthy population of SF9 insect cells for expression under the control of the ^ie1GP64 baculovirus promoter (EMD biosciences).
Recombinant protein was isolated from the membranes of the insect cells by extraction using 1% β-dodecylmaltopyranoside followed by purification using immobilized metal affinity chromatography resin and standard protocols After elution the protein was analyzed by analytical size exclusion chromatography to determine its retention time relative to an unliganded receptor.
Size Exclusion Chromatography Peak Shift Assay—Characterization of Stability Induction for Compounds
The protein's hydrodynamic radius was analyzed on an analytical size exclusion chromatography column (Sepax Zenix SEC-300 250 mm×4.6 mm column) equilibrated with 20 mM Hepes pH 7.5, 500 mM NaCl, 2% v/v glycerol, 0.05% w/v DDM and 0.01% w/v CHS and attached to a Dionex Ultimate HPLC which continuously pumped running buffer at a flow rate of 0.5 mL/min. The HPLC was equipped with an ultraviolet absorption and a fluorescence detector which enabled detection of total protein absorbance and GFP fluorescent emission respectively. The peak profiles of the GLP-1R in the presence of multiple compounds could be determined from impure mixtures using fluorescence detection.
Each tested compound was assayed for its ability to alter the hydrodynamic radius. This change can manifest as either a positive or negative shift in retention time in the peak shift assay. A positive shift represents a decrease in apparent molecular weight of the complex, while a negative shift represents an increase in size. Compounds that result in a negative shift in retention time (i.e. increased size) may do so by destabilizing the receptor or by causing non-specific aggregation. Compounds that result in a positive shift in retention time (i.e. decreased size) may do so either by stabilizing the receptor in a more compact conformation or by disrupting the oligomeric state (e.g. Dimer→monomer transition).
For this assay we reported the relative shift in retention time of each compound with respect to the apo protein (without ligand) and a positive control.

T1 sequence (P43220 24-463): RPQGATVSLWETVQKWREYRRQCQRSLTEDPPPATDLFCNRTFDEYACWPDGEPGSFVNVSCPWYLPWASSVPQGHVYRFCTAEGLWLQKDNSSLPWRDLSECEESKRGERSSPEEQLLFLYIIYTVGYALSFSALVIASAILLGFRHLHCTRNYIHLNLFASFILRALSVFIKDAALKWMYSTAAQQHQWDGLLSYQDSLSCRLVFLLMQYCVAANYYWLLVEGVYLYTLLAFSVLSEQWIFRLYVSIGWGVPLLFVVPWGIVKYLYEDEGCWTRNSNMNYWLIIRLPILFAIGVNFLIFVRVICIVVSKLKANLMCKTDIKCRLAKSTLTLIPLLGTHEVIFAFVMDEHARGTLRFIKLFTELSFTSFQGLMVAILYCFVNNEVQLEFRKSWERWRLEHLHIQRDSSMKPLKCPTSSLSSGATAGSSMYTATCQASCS
T1 sequence (P01275 100-127 partner limits assumed): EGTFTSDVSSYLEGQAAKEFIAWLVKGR

As usually defined, the EC50 is the concentration at which the effect is half-maximal. Regarding `CCCCCCCOc1ccc(C(=O)Oc2ccc(CC(NC(=O)c3ccc(OC)cc3)C(=O)O)cc2OC)cc1` (stereo not shown) [Compound 2, 3-(4-((4-(heptyloxy)benzoyl)oxy)-3-methoxyphenyl)-2-(4-methoxybenzamido)propanoic acid], at GLP-1R [1], the concentration for a half-maximal effect (EC50) was more than 20 µM and the “EC20 GLP-1 (9-36) PAM max cAMP” value was determined as 0.189 µM. On the same counts, the results for `CCCCCCCOc1ccc(C(=O)Oc2ccc(C[C@H](NC(=O)c3ccc(C(C)(C)C)cc3)C(=O)O)cc2)cc1` [Compound 57, (S)-2-(4-(tert-butyl)benzamido)-3-(4-((4-(heptyloxy)benzoyl)oxy)phenyl)propanoic acid] are 3.67 µM and 0.237 µM.

For the molecule `CCCCCCCOc1ccc(C(=O)Oc2ccc(C[C@H](NC(=O)c3ccc(OC)cc3)C(=O)O)cc2)cc1` [Compound 63], at GLP-1R [1], the EC50 was more than 10 µM and the “EC20 GLP-1 (9-36) PAM max cAMP” value came out at 0.072 µM.

Take `CCCCCCCOc1ccc(C(=O)Oc2ccc(CC(NC(=O)c3ccc(NC(=O)COCc4ccccc4)cc3)C(=O)O)cc2OC)cc1` (stereo not shown) [Compound 103, 2-(4-(2-(benzyloxy)acetamido)benzamido)-3-(4-((4-(heptyloxy)benzoyl)oxy)-3-methoxyphenyl)propanoic acid]: on GLP-1R [1], the EC50 is 5.49 µM and the “EC20 GLP-1 (9-36) PAM max cAMP” value is 0.204 µM. Taken in the same sequence, the figures for `CCCCCCCOc1ccc(C(=O)Oc2ccc(CC(NC(=O)c3ccc(NC(=O)Cc4ccc(OC)cc4)cc3)C(=O)O)cc2OC)cc1` (stereo not shown) [Compound 120, 3-(4-((4-(heptyloxy)benzoyl)oxy)-3-methoxyphenyl)-2-(4-(2-(4-methoxyphenyl)acetamido)benzamido)propanoic acid] were 4.05 µM and 0.174 µM. Taken in the same sequence, the figures for `CCCCCCCOc1ccc(C(=O)Oc2ccc(C[C@H](NC(=O)c3ccc(NC(=O)Cc4ccc(OC)cc4)cc3)C(=O)O)cc2)cc1` [Compound 178, (S)-3-(4-((4-(heptyloxy)benzoyl)oxy)phenyl)-2-(4-(2-(4-methoxyphenyl)acetamido)benzamido)propanoic acid] were 6.31 µM and 0.098 µM. On the same counts, the results for `CCCCCCCOc1ccc(C(=O)Oc2ccc(C[C@H](NC(=O)c3ccc(NC(=O)COCc4ccccc4)cc3)C(=O)O)cc2)cc1` [Compound 179, (S)-2-(4-(2-(benzyloxy)acetamido)benzamido)-3-(4-((4-(heptyloxy)benzoyl)oxy)phenyl)propanoic acid] are 4.84 µM and 0.16 µM. On to `CCCCCCCOc1ccc(C(=O)Oc2ccc([C@H](NC(=O)c3ccc(NC(=O)Cc4ccc(OC)cc4)cc3)C(=O)O)cc2)cc1` [Compound 263, (S)-2-(4-((4-(heptyloxy)benzoyl)oxy)phenyl)-2-(4-(2-(4-methoxyphenyl)acetamido)benzamido)acetic acid], for which, on GLP-1R [1], the EC50 came out at 2.78 µM and the “EC20 GLP-1 (9-36) PAM max cAMP” value was determined as 0.216 µM.

Regarding `COc1cc(CC(NC(=O)c2ccc(NC(=O)C3CCCC3)cc2)C(=O)O)ccc1OC(=O)c1ccccc1` (stereo not shown) [Compound 266], the “PEAK SHIFT ASSAY (relative shift in retention time, normalized 0 to 5 positive, −5 to 0 negative)” value in the test with GLP-1R [2] is given as 0.88. For `COc1cc(CC(NC(=O)c2ccc(NC(=O)C3CCCC3)cc2)C(=O)O)ccc1OC(=O)c1ccccc1OC(C)=O` (stereo not shown) [Compound 267], the “PEAK SHIFT ASSAY (relative shift in retention time, normalized 0 to 5 positive, −5 to 0 negative)” value in the test with GLP-1R [2] was determined as 0.25. Still for that read-out and setting: the same measure for `COc1ccc(C(=O)Oc2ccc(CC(NC(=O)c3ccc(NC(=O)C4CCCC4)cc3)C(=O)O)cc2OC)cc1` (stereo not shown) [Compound 268]: 0.46; for `COc1cc(CC(NC(=O)c2ccc(NC(=O)C3CCCC3)cc2)C(=O)O)ccc1OC(=O)c1ccc(C#N)cc1` (stereo not shown) [Compound 269]: 0.34; for `COc1cc(CC(NC(=O)c2ccc(NC(=O)C3CCCC3)cc2)C(=O)O)ccc1OC(=O)c1ccccc1COC(=O)c1ccccc1` (stereo not shown) [Compound 270]: 0. On the same count and under the same terms, the same measure for `CCCN(CCC)S(=O)(=O)c1ccc(C(=O)Oc2ccc(CC(NC(=O)c3ccc(NC(=O)C4CCCC4)cc3)C(=O)O)cc2OC)cc1` (stereo not shown) [Compound 271]: 0.52; for `COc1cc(CC(NC(=O)c2ccc(NC(=O)C3CCCC3)cc2)C(=O)O)ccc1OC(=O)c1ccc(NC(=O)C2CCCC2)cc1` (stereo not shown) [Compound 272]: −1.15. As to `CCCCCCCOc1ccc(C(=O)Oc2ccc(CC(NC(=O)c3ccc(NC(=O)C4CCCC4)cc3)C(=O)O)cc2OC)cc1` (stereo not shown) [Compound 273, 2-(4-(cyclopentanecarboxamido)benzamido)-3-(4-((4-(heptyloxy)benzoyl)oxy)-3-methoxyphenyl)propanoic acid], the “PEAK SHIFT ASSAY (relative shift in retention time, normalized 0 to 5 positive, −5 to 0 negative)” value in the test on GLP-1R [2] came to 0.69. At GLP-1R [1], the EC50 is more than 10 µM and the “EC20 GLP-1 (9-36) PAM max cAMP” value worked out at 0.027 µM. As for `COc1cc(CC(NC(=O)c2ccc(NC(=O)C3CCCC3)cc2)C(=O)O)ccc1OC(=O)c1ccc(NC(C)=O)cc1` (stereo not shown) [Compound 274, 3-(4-((4-acetamidobenzoyl)oxy)-3-methoxyphenyl)-2-(4-(cyclopentanecarboxamido)benzamido)propanoic acid], the “PEAK SHIFT ASSAY (relative shift in retention time, normalized 0 to 5 positive, −5 to 0 negative)” value with GLP-1R [2] is listed as 0.83.

Consider `COc1cc(CC(NC(=O)c2ccc(NC(=O)C3CCCC3)cc2)C(=O)O)ccc1OC(=O)c1ccc(-c2ccccc2)cc1` (stereo not shown) [Compound 275], for which the “PEAK SHIFT ASSAY (relative shift in retention time, normalized 0 to 5 positive, −5 to 0 negative)” value in the test with GLP-1R [2] stood at 0.
